Assay results from the supplement of paper PMC10307832.

Key:
Experiment in all cases: relative viability (nuclei count vs DMSO), 5 days (fraction); higher = more cells survive
[1] = compound: CN1C=C(C2=CC=CC=C21)/C=C\3/C4=C(C=CC=N4)NC3=O + CS(=O)(=O)CCNCc1ccc(-c2ccc3ncnc(Nc4ccc(OCc5cccc(F)c5)c(Cl)c4)c3c2)o1 [Lapatinib] (partner 2 µM)
Procedure, shortened: (§1)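 Dosing by pin tool came one day after lung cancer cell lines were seeded in 1536-well plates, using either one drug or a fixed anchor-drug dose plus five library-drug doses (not always all listed) in √10 steps. After 5 days, nuclei were counted on 4× images. Relative viability is treated-well nuclei count divided by vehicle-well nuclei count, and values are medians of duplicate plates.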

Trametinib + Phenformin = compound: CC(=O)Nc1cccc(-n2c(=O)n(C3CC3)c(=O)c3c(Nc4ccc(I)cc4F)n(C)c(=O)c(C)c32)c1 [Trametinib] + N=C(N)NC(=N)NCCc1ccccc1 [Phenformin] (partner 250 µM)
Procedure, shortened: as §1

[2] = compound: CN1C=C(C2=CC=CC=C21)/C=C\3/C4=C(C=CC=N4)NC3=O + Cc1cc(Nc2cc(N3CCN(C)CC3)nc(Sc3ccc(NC(=O)C4CC4)cc3)n2)n[nH]1 [Tozasertib] (partner 0.1 µM)
Procedure, shortened: as §1

[3] = compound: CN1C=C(C2=CC=CC=C21)/C=C\3/C4=C(C=CC=N4)NC3=O
Procedure, shortened: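 On vehicle-anchored 1536-well plates, lung cancer cell lines held overnight at 37 °C were pinned with five library-drug doses (not always all listed) spaced by √10. With no medium change over 5 days, they were then fixed, permeabilised and Hoechst-stained in one step and imaged at 4×. MetaXpress counted nuclei, and viability is the median across plates of treated-well over vehicle-well nuclei. Acceptance needed control CV below 25% and at least one doubling.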

Cell Line	relative viability ([1]; first compound 0.02 µM)	relative viability ([1]; first compound 0.06325 µM)	relative viability ([1]; first compound 0.2 µM)	relative viability ([1]; first compound 0.6325 µM)	relative viability ([1]; first compound 2 µM)	relative viability (Trametinib + Phenformin; first compound 0.0025 µM)	relative viability (Trametinib + Phenformin; first compound 0.007906 µM)	relative viability (Trametinib + Phenformin; first compound 0.025 µM)	relative viability (Trametinib + Phenformin; first compound 0.07906 µM)	relative viability (Trametinib + Phenformin; first compound 0.25 µM)	relative viability ([2]; first compound 0.02 µM)	relative viability ([2]; first compound 0.06325 µM)	relative viability ([2]; first compound 0.2 µM)	relative viability ([2]; first compound 0.6325 µM)	relative viability ([2]; first compound 2 µM)	relative viability ([3]; 0.02 µM)	relative viability ([3]; 0.06325 µM)	relative viability ([3]; 0.2 µM)	relative viability ([3]; 0.6325 µM)	relative viability ([3]; 2 µM)
LU99A	0.986	0.805	0.9	0.964	0.85	0.895	0.812	0.642	0.588	0.455	0.252	0.264	0.278	0.257	0.256	0.983	0.845	0.909	0.937	0.789
LXF-289	0.889	0.882	0.905	0.911	0.884	0.503	0.451	0.444	0.422	0.263	0.14	0.195	0.217	0.213	0.182	0.979	1	0.976	1	1.03
NCI-H23	0.926	0.952	–	0.892	0.991	0.782	0.738	0.312	0.583	0.303	0.48	0.365	0.304	0.328	0.227	0.802	0.849	0.685	1.03	0.986
NCI-H322M	0.566	0.631	0.597	0.548	0.631	0.679	0.577	0.525	0.501	0.43	0.46	0.5	0.485	0.507	0.639	0.854	0.93	0.787	0.973	0.956
NCI-H358	0.46	0.419	0.436	0.55	0.446	0.201	0.189	0.146	0.124	0.121	0.0895	0.11	0.109	0.0977	0.117	0.907	0.931	0.916	0.891	0.938
NCI-H460	1.11	1.06	1.09	–	1.23	0.502	0.332	0.237	0.135	0.041	0.458	0.403	0.448	0.363	0.0797	1.04	0.98	0.973	0.992	0.947
NCI-H520	0.741	0.86	0.841	0.981	0.937	0.543	0.666	0.392	0.608	0.199	0.396	0.47	0.501	0.436	0.415	0.967	0.895	1.03	0.952	0.965
NCI-H596	1.05	1.03	0.889	1.02	0.99	0.713	0.704	0.485	0.622	0.411	0.981	0.878	0.745	0.7	0.918	0.985	0.998	0.791	0.982	0.993
NCI-H647	1.06	0.995	0.679	0.949	1.27	0.554	0.561	0.507	0.333	0.148	0.327	0.345	0.206	0.321	0.215	0.946	0.863	0.656	0.784	0.827
NCI-H650	0.824	0.738	–	0.754	0.82	0.532	0.52	0.501	0.426	0.403	0.643	0.674	–	0.829	0.757	0.968	0.915	–	0.84	0.846
NCI-H661	0.601	0.574	0.46	0.427	0.54	0.298	0.289	0.257	0.28	0.246	0.344	0.349	0.365	0.4	0.36	0.999	0.986	0.985	1.06	0.986
NCI-H727	0.757	0.688	0.428	0.914	0.767	0.32	0.359	0.406	0.257	0.264	0.554	0.447	0.59	0.636	0.633	0.924	0.855	0.818	0.921	0.936
NCI-H838	0.774	0.9	0.813	0.785	0.896	0.515	0.509	0.281	0.369	0.351	0.264	0.223	0.259	0.294	0.257	0.82	0.859	0.914	0.837	0.909
NCI-H1355	0.952	0.784	0.7	0.637	0.646	0.394	0.415	0.322	0.382	0.308	0.52	0.599	0.523	0.412	0.368	0.933	0.888	0.899	0.692	0.824
NCI-H1395	0.878	1.01	–	0.948	0.885	0.479	0.445	0.432	0.416	0.328	0.703	0.72	0.681	0.721	0.821	0.818	0.894	0.632	0.878	0.785
NCI-H1437	0.837	0.842	0.708	0.841	0.938	0.258	0.205	0.23	0.201	0.206	0.39	0.427	0.417	0.438	0.463	1.06	0.998	0.882	1.05	1.04

Cell Line	relative viability ([1]; first compound 0.02 µM)	relative viability ([1]; first compound 0.06325 µM)	relative viability ([1]; first compound 0.2 µM)	relative viability ([1]; first compound 0.6325 µM)	relative viability ([1]; first compound 2 µM)	relative viability (Trametinib + Phenformin; first compound 0.0025 µM)	relative viability (Trametinib + Phenformin; first compound 0.007906 µM)	relative viability (Trametinib + Phenformin; first compound 0.025 µM)	relative viability (Trametinib + Phenformin; first compound 0.07906 µM)	relative viability (Trametinib + Phenformin; first compound 0.25 µM)	relative viability ([2]; first compound 0.02 µM)	relative viability ([2]; first compound 0.06325 µM)	relative viability ([2]; first compound 0.2 µM)	relative viability ([2]; first compound 0.6325 µM)	relative viability ([2]; first compound 2 µM)	relative viability ([3]; 0.02 µM)	relative viability ([3]; 0.06325 µM)	relative viability ([3]; 0.2 µM)	relative viability ([3]; 0.6325 µM)	relative viability ([3]; 2 µM)
NCI-H1650	0.854	0.793	0.574	0.768	0.842	0.388	0.538	0.495	0.325	0.151	0.41	0.366	0.454	0.334	0.35	1.03	0.923	0.685	0.794	0.914
NCI-H1651	1.02	1.09	0.761	0.836	1.09	0.26	0.293	0.296	0.288	0.182	0.799	0.673	0.664	0.698	0.728	1.07	0.961	0.957	0.945	1.06
NCI-H1666	0.781	0.606	0.512	0.599	0.532	0.526	0.574	0.6	0.57	0.513	0.596	0.546	0.61	0.609	0.603	1.09	0.938	0.99	0.924	0.967
NCI-H1734	1.01	1.01	–	1.02	1.08	0.289	0.292	0.217	0.245	0.206	0.281	0.311	–	0.295	0.284	0.971	0.939	–	1.05	1.06
NCI-H1755	0.966	0.918	0.903	0.959	0.958	0.593	0.587	0.608	0.594	0.512	0.56	0.557	0.605	0.502	0.509	0.968	0.991	1.05	0.914	0.891
NCI-H1793	0.912	0.787	0.646	0.448	0.799	0.329	0.314	0.283	0.176	0.219	0.306	0.37	0.296	0.258	0.197	1.02	1.1	0.737	0.79	0.918
NCI-H1915	0.921	0.98	0.898	1.09	1.05	0.38	0.306	0.249	0.304	0.141	0.385	0.432	0.482	0.424	0.484	0.964	0.934	0.97	1.09	1.05
NCI-H1944	0.719	0.743	–	0.759	0.727	0.187	0.159	0.152	0.148	0.137	0.234	0.246	–	0.234	0.21	0.903	0.948	–	0.989	0.936
NCI-H1975	0.839	0.929	0.775	0.903	0.77	0.386	0.308	0.291	0.234	0.124	0.688	0.753	0.641	0.42	0.245	1.03	0.898	0.887	0.845	0.677
NCI-H1993	0.694	0.497	0.83	0.788	0.909	0.538	0.536	0.558	0.554	0.56	0.565	0.565	0.552	0.652	0.559	0.927	0.84	0.825	0.671	0.814
NCI-H2009	0.996	0.965	1.02	0.947	0.898	0.394	0.302	0.231	0.213	0.215	0.73	0.613	0.741	0.859	0.831	0.975	0.994	1.02	1.05	1.05
NCI-H2023	0.709	0.739	0.222	0.652	0.684	0.34	0.393	0.349	0.289	0.167	0.282	0.267	0.352	0.249	0.237	1.01	0.962	0.768	0.945	0.898
NCI-H2085	0.746	0.654	0.596	0.605	0.813	0.588	0.509	0.332	0.464	0.25	0.803	0.734	0.797	0.622	0.575	1.01	0.943	0.942	1.03	0.993
NCI-H2087	1.28	0.757	0.968	0.949	1.07	0.294	0.258	0.146	0.153	0.111	0.227	0.245	0.249	0.189	0.212	1	0.87	1.05	0.986	1.06
NCI-H2126	0.678	0.796	0.671	0.748	0.674	0.501	0.464	0.419	0.481	0.466	0.85	0.756	0.807	0.807	0.836	0.965	0.993	0.885	1.01	0.955
NCI-H2170	–	0.253	0.233	0.264	0.284	0.351	0.414	0.399	0.357	0.333	0.549	0.721	0.737	0.79	0.72	0.854	0.983	0.833	0.839	1.07
